Literature values as cited in patent US12678402B2 (Nasus Pharma Ltd., priority 2020, dated 2026).
Like-named read-outs stand apart in the source and are kept apart here.

Experiments:
nasal epithelia = details: in vitro; dissolves in nasal fluid
[1] = IN 1 mg up to 12 mg, different indications and formulations

In the case of `CNC[C@H](O)c1ccc(O)c(O)c1` [Epinephrine], the “Cbaseline Mean (±SD)” value (0.3 mg IM) is given as 35 ± 23 pg/mL, the Tmax (0.3 mg IM) is given as 67 ± 43 min and the “Cbaseline Mean (±SD)” value (5 mg IN) is given as 8 ± 6 pg/mL. The adverse events observed (IN epinephrine in saline formulation, healthy adults) was “transient tremor was observed in one subject and palpitation in two subjects”, the “heart rate and blood pressure changes” value (IN epinephrine in saline formulation, healthy adults, at Tmax) was “Increase in heart rate, and diastolic and systolic blood pressures occurred at Tmax. in most subjects” and the serious adverse effects (after IN epinephrine administration, healthy adults) was “No serious adverse effects were observed”. For the same compound, the “absorption after deposition of the powder in the nasal cavity” value (nasal epithelia) was “rapidly absorbed through the nasal epithelia” and the serious adverse events [1] was “no serious adverse events”.
